{"source": "patent US20240309066A1", "about": "“MEANS AND METHODS FOR THE TREATMENT OF CALCIUM CRYSTAL DEPOSITION DISEASES” (UNIVERSITEIT MAASTRICHT, priority 2021, published 2024)", "molecules": {"B1": {"name": "bFetuin: bovine Fetuin (Sigma-Aldrich, #F2379), positive control for precipitation inhibition (protein, UniProt Q58D62 19-387, looked up)", "Fetuin-B": "TSPPQPAARPSSLLSLDCNSSYVLDIANDILQDINRDRKDGYVLSLNRVSDAREHRQEAGLGSLFYFTLDVLETGCHVLSRTSWKNCEVRIFHESVYGQCKAIFYINKEKRIFYLPAYNCTLRPVSQSAIIMTCPDCPSTSPYDLSNPRFMETATESLAKYNSESPSKQYSLVKITKTSSQWVFGPAYFVEYLIKESPCVKSEGSSCALESPGSVPVGICHGSLGEPQGNQGKIISVTCSFFNSQAPTPRGENATVNQRPANPSKTEELQQQNTAPTNSPTKAVPKGSVQYLPDWDKKREGSQEKDPVETFPVQLDLTTNPQGESLDVSFLFQEPMEEKVVVLPFPSKEQRSAECPGPAQKGYPFILPS"}}, "key": {"[1]": {"system": "Bone marrow derived stromal cells (BMSCs)", "assay": "Beta-glycerophosphate-induced BMSC osteogenic differentiation model", "assay_type": "cell-based, human", "details": "21 days osteogenic differentiation medium with BGP, 2.1 μM peptide", "method": "(§1) FIG. 3: Inhibition of cellular calcification of human articular chondrocytes, vascular smooth muscle cells and bone marrow stromal cells by the peptide according to SEQ ID NO: 1. Representative phase-contrast microscopy images of in vivo cell assays are shown. • A) Human articular chondrocytes (HACs) were stimulated for 7 days with 1 mM ATP and with or without 20 μM of the peptide. Results were obtained from three chondrocyte donors with three biological replicates each. • B) Vascular smooth muscle cells (VSMC) were stimulated for 7 days with 4.5 mM ionic calcium in the presence or absence of 20 μM of peptide. Results were obtained from three VSMC donors with three biological replicates each. • C) BMSCs were differentiated for 21 days in osteogenic differentiation medium containing beta-glycerophosphate (BGP) in the pre- or absence of 2.1 μM of peptide. BMSC; one donor with four biological replicates was used. • Left panels: phase-contrast images were obtained at the final day of each experiment. […] Scale bars indicate 200 μm. • Right panels: quantification of total calcium precipitation per well measured with the Randox total calcium assay and normalized to total protein. […]\n(§2) Quantification of deposited calcium was carried out using a calcium determination kit (Randox, London, United Kingdom) according to the manufacturer's instruction, after hydrolysis of mineral deposits in 0.1M HCl. […]"}, "[2]": {"system": "Human articular chondrocytes (HACs)", "assay": "ATP-induced human articular chondrocyte calcification model", "assay_type": "cell-based", "details": "7 days, 1 mM ATP, 20 μM peptide, vs control with ATP", "method": "as §1, §2"}, "[3]": {"assay": "In vitro calcium phosphate precipitation assay", "assay_type": "biochemical", "details": "for Precipitation inhibition: absorption measurement before SEM processing", "method": "To evaluate the inhibitory capacity of the peptide according to SEQ ID NO: 1, we utilized a well-established in vitro calcium phosphate precipitation assay (17-19) as described in example 2.\nCalcium precipitation assays were performed essentially as described before with minor adaptations (19). 2.4 mM ionic calcium (0.1M stock) was added to a 50 mM Tris/HCL buffer (pH 7.4) in 1.5 ml Eppendorf tubes. Peptide or bFetuin were added and incubated for 15 minutes at room temperature. Subsequently, 1.6 mM phosphate buffer (0.1M stock) was added and the mixture was incubated for 120 minutes at 37° C.\nData were normalized to the first positive control (normalized to 100%) in each experiment. As an internal reference for precipitation inhibition, we used 1 mg/ml, 0.5 mg/ml and 0.25 mg/ml bovine Fetuin (bFetuin, Sigma-Aldrich, #F2379) in each experiment. After 2 hours, samples were transferred to cuvettes (1.0 ml reactions) and absorbance was measured at A620 in a plate reader with a plate reader (Biorad). Each condition consisted of three biological replicates."}, "[4]": {"system": "rat osteoarthritis model", "assay": "Rat osteoarthritis model (medial meniscal tear, collateral ligament transection)", "assay_type": "in vivo, Lewis rats", "method": "FIG. 4: Intra-articular injection of the peptide ameliorates cartilage histopathology and improves animal mobility in a rat osteoarthritis model. Osteoarthritis was induced by introducing a surgical tear of the medial meniscus and transection of the collateral ligament (N=40). Bi-weekly intra-articular injections of 50 μl peptide with a concentration of 20 μM or 50 μl vehicle (0.9% NaCl) were performed (N=20 per group). Necropsy was performed at day 28, followed by histological analyses according to the OARSI scoring system.\n• A) Representative toluidine blue stained tissue sections from the best, average and worst histological appearance. Cartilage tissue is stained in dark blue. • B) The OARSI score was obtained by multiplying grade and stage of cartilage damage per animal by two blinded observers. Statistical comparison was done with a two-tailed t-test. *=p. value<0.05. • C) Gait analyses score at day 20 of the experiment. Four measurements per animal were performed and each dot represents the average of one animal in the graph. Statistical significance between groups was determined with a Mann-Whitney U test. *=p. value<0.05.\nWe also evaluated the effect of bi-weekly intra-articular injection of the peptide in a rat osteoarthritis model (FIG. 4). Osteoarthritis was induced with a surgical tear of the medial meniscus and transection of the collateral ligament (N=40). […]"}, "[5]": {"system": "Vascular smooth muscle cells (VSMC)", "assay": "Calcium-induced vascular smooth muscle cell calcification model", "assay_type": "cell-based, human", "details": "7 days, 4.5 mM ionic calcium, 20 μM peptide", "method": "as §1, with “peptide.” for “peptide. Results were obtained from three VSMC donors with three biological replicates each. • C) BMSCs were differentiated for 21 days in osteogenic differentiation medium containing beta-glycerophosphate (BGP) in the pre- or absence of 2.1 μM of peptide. BMSC; one donor with four biological replicates was used. • Left panels: phase-contrast images were obtained at the final day of each experiment.”\nas §2\nHuman primary smooth muscle cells (VSMCs) were derived from tissue explants from patients undergoing surgery. […] Success of the isolation was determined by immunofluorescence staining for positive expression of alpha-smooth muscle actin (αSMA), smooth muscle protein 22-alpha (SM22α), phosphorylated myosin light chain 2 (pMLC) and absence of S100 C Calcium Binding Protein 4 (S100A4). […]"}, "[6]": {"assay": "Total calcium, phosphate and protein measurements in pellets of in vitro precipitates", "assay_type": "biochemical", "details": "24 hours; control 14%", "method": "To test this, particles were allowed to form for 2 or 24 hours in the presence or absence (control) of bFetuin or the peptide according to SEQ ID NO: 1. and subsequently harvested by centrifugation, washed and dissolved in acid, followed by total calcium, phosphate and protein measurements in the pellet and the supernatant.\nQuantification of deposited calcium was carried out using a calcium determination kit (Randox, London, United Kingdom) according to the manufacturer's instruction, after hydrolysis of mineral deposits in 0.1M HCl. Calcium measurements were normalized to protein content using micro DC Protein Assay (Termo Scientifc, Bleiswijk, the Netherlands). To be able to measure protein content, an equal amount of 0.1M NaOH was used to neutralize the acid and 0.1% SDS (final concentration) was added to lyse cells in the cellular calcification assays.\nQuantification of deposited phosphate was carried out using a phosphate colorimetric assay (Sigma, MK030) according to manufacturer's instruction after solubilisation of precipitates in 0.1M HCL."}}, "note": "[ ]: non-standard residue; d: D form."}
{"molecule": "peptide according to SEQ ID NO: 1: circular polypeptide of 30 D-amino acids LIYRQPNCDDPETEEAALVAIDYIAPHGPG, D-Leucine at position 1 linked to D-Glycine at position 30 (cyclo([dL][dI][dY][dR][dQ][dP][dN][dC][dD][dD][dP][dE][dT][dE][dE][dA][dA][dL][dV][dA][dI][dD][dY][dI][dA][dP][dH]G[dP]G); SMILES CC[C@@H](C)[C@H]1NC(=O)[C@@H](C)NC(=O)[C@@H](C(C)C)NC(=O)[C@@H](CC(C)C)NC(=O)[C@@H](C)NC(=O)[C@@H](C)NC(=O)[C@@H](CCC(=O)O)NC(=O)[C@@H](CCC(=O)O)NC(=O)[C@@H]([C@H](C)O)NC(=O)[C@@H](CCC(=O)O)NC(=O)[C@H]2CCCN2C(=O)[C@@H](CC(=O)O)NC(=O)[C@@H](CC(=O)O)NC(=O)[C@@H](CS)NC(=O)[C@@H](CC(N)=O)NC(=O)[C@H]2CCCN2C(=O)[C@@H](CCC(N)=O)NC(=O)[C@@H](CCCNC(=N)N)NC(=O)[C@@H](Cc2ccc(O)cc2)NC(=O)[C@@H]([C@H](C)CC)NC(=O)[C@@H](CC(C)C)NC(=O)CNC(=O)[C@H]2CCCN2C(=O)CNC(=O)[C@@H](Cc2c[nH]cn2)NC(=O)[C@H]2CCCN2C(=O)[C@@H](C)NC(=O)[C@@H]([C@H](C)CC)NC(=O)[C@@H](Cc2ccc(O)cc2)NC(=O)[C@@H](CC(=O)O)NC1=O; listed as Homo Sapiens)", "values": [{"measurement": "inhibition of calcium precipitation", "setting": "[1]", "value": 81, "unit": "%"}, {"measurement": "inhibition of calcification", "setting": "[2]", "value": "22-33%"}, {"measurement": "Precipitation inhibition", "setting": "[3]; 20 μM peptide, 2 hours", "value": "~50", "unit": "%"}, {"measurement": "efficiency of inhibition of in vitro calcium phosphate precipitation, comparison", "setting": "[3]; compared with bFetuin", "value": "more efficiently than bFetuin"}, {"measurement": "concentration range down to which activity remained", "setting": "[3]; dilution series in steps of 10, 2 hours", "value": "remained active until the attomolar concentration range"}, {"measurement": "concentration able to statistically significantly inhibit precipitation compared to control", "setting": "[3]; dilution series, 2 hours", "value": 20.6, "unit": "aM"}, {"measurement": "concentration not able to statistically significantly inhibit precipitation", "setting": "[3]; dilution series, 2 hours", "value": 2.6, "unit": "aM"}, {"measurement": "reduction of histopathological OA score (OARSI)", "setting": "[4]; day 28 post-surgery, bi-weekly intra-articular 50 μl of 20 μM, vs vehicle", "value": 38, "unit": "%"}, {"measurement": "animals having a normal gait", "setting": "[4]; gait analysis day 20, bi-weekly intra-articular 50 μl of 20 μM, vehicle 5/20", "value": "16/20"}, {"measurement": "inhibition of calcification", "setting": "[5]", "value": "58-61%"}, {"measurement": "phosphate content in pellet", "setting": "[6]", "value": 9, "unit": "%"}]}
{"molecule": "B1", "values": [{"measurement": "Precipitation inhibition", "setting": "[3]; 0.5 mg/ml bFetuin, 2 hours", "value": "~50", "unit": "%"}, {"measurement": "inhibition of precipitation", "setting": "[3]; 1 mg/ml (20.6 μM), positive control", "value": "completely inhibit precipitation"}, {"measurement": "concentration at which the inhibitory effect is lost", "setting": "[3]; dilution series, 2 hours, molar equivalent of μg/ml", "value": "20.6 to 200.6", "unit": "nM"}, {"measurement": "phosphate content in pellet", "setting": "[6]", "value": 9, "unit": "%"}]}
